According to ChEMBL document CHEMBL2311443, “Exploring amino acids derivatives as potent, selective, and direct agonists of sphingosine-1-phosphate receptor subtype-1” (Bioorg Med Chem Lett, 2013):

What was measured:
Mus musculus [1] = test: Immunomodulatory activity in C57Bl/6 mouse assessed as induction of lymphopenia at 1 mg/kg, po measured after 6 hrs; format: functional
[2] = biological target: T1, Sphingosine 1-phosphate receptor 1 (Homo sapiens, UniProt P21453); test: Agonist activity at human S1P1 receptor expressed in HEK293T cells assessed as stimulation of [35S]GTPgammaS binding; format: functional, cell-based, HEK-293T
T1 sequence (P21453 whole entry): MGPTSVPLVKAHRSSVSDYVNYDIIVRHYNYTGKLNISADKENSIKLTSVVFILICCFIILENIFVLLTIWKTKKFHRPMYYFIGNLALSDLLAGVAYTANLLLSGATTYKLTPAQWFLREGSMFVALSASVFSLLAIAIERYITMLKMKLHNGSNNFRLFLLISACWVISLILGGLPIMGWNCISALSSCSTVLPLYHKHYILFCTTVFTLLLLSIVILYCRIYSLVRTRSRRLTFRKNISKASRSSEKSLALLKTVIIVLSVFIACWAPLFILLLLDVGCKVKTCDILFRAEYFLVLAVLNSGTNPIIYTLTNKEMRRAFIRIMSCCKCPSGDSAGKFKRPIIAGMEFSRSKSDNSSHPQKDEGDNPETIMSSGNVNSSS

[3] = biological target: T2, Sphingosine 1-phosphate receptor 3 (Homo sapiens, UniProt Q99500); test: Agonist activity at human S1P3 receptor expressed in HEK293T cells assessed as stimulation of [35S]GTPgammaS binding; format: functional, cell-based, HEK-293T
T2 sequence (Q99500 whole entry): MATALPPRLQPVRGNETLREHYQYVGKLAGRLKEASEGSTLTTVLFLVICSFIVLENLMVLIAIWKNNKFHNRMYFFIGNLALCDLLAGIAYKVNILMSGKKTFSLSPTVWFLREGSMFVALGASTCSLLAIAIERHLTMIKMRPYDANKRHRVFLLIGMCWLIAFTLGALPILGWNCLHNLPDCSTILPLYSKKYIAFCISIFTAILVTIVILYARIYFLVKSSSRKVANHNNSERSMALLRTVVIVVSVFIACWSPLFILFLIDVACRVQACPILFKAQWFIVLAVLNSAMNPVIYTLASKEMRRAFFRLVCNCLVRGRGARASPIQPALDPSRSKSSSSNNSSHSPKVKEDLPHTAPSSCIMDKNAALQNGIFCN

[4] = biological target: T2, Sphingosine 1-phosphate receptor 3; test: Displacement of [33P]S1P from human S1P3 receptor expressed in HEK293T cells after 1 hr by liquid scintillation counting analysis; format: cell-based, HEK-293T
[5] = biological target: T1, Sphingosine 1-phosphate receptor 1; test: Displacement of [33P]S1P from human S1P1 receptor expressed in HEK293T cells after 1 hr by liquid scintillation counting analysis; format: cell-based, HEK-293T
Homo sapiens [6] = species on record: Homo sapiens; test: Selectivity index, ratio of EC50 for human S1P3 to EC50 for human S1P1
Mus musculus [7] = test: Immunomodulatory activity in C57Bl/6 mouse assessed as induction of lymphopenia at 10 mg/kg, po measured after 6 hrs; format: functional
Mus musculus [8] = test: Immunomodulatory activity in C57Bl/6 mouse assessed as induction of lymphopenia at 20 mg/kg, iv measured after 6 hrs; format: functional
Homo sapiens [9] = species on record: Homo sapiens; test: Selectivity index, ratio of IC50 for human S1P3 to IC50 for human S1P1

Row | EC50 [2] [µM] | EC50 [3] [µM] | IC50 [4] [µM] | IC50 [5] [µM] | Ratio EC50 (Homo sapiens [6]) | Ratio IC50 (Homo sapiens [9]) | Structure (SMILES) | Activity (Mus musculus [1]) [%] | Activity (Mus musculus [7]) [%] | Activity (Mus musculus [8]) [%]
1 | – | – | – | – | – | – | CCCCCCCCc1ccc(CCC(N)(CO)CO)cc1 [FINGOLIMOD] | 80 | – | –
2 | 0.7 | > 3 | > 10 | 0.082 | > 4 | – | C[C@](N)(CC(=O)O)c1nc(-c2ccc(OCc3ccc(-c4ccccc4)cc3)c(C(F)(F)F)c2)c[nH]1 | – | – | –
3 | – | – | > 10 | 0.37 | – | – | CCCCCCCCc1ccc(NC(=O)[C@@](C)(N)CC(=O)O)cc1C(F)(F)F | – | – | –
4 | – | – | 10 | 0.077 | – | – | CCCCCCCCOc1ccc(NC(=O)[C@@](C)(N)CCC(=O)O)cc1 | – | – | –
5 | – | – | > 10 | 3 | – | – | O=C(O)CCc1nc(-c2ccc(OCc3ccc(-c4ccccc4)cc3)c(C(F)(F)F)c2)c[nH]1 | – | – | –
6 | – | – | 10 | 0.092 | – | – | CCCCCCCCOc1ccc(NC(=O)[C@@H](N)CCC(=O)O)cc1 | – | 44 | –
7 | 0.161 | > 3 | > 10 | 0.017 | > 18.6 | – | N[C@@H](CC(=O)O)c1nc(-c2ccc(OCc3ccc(-c4ccccc4)cc3)c(C(F)(F)F)c2)c[nH]1 | – | – | –
8 | 0.231 | > 3 | > 10 | 0.053 | > 13 | – | CCCCCCCCOc1ccc(NC(=O)[C@@H](N)CC(=O)O)cc1C(F)(F)F | – | 33 | 60
9 | 0.164 | 1.8 | 1.05 | 0.0144 | 11 | 73 | CCCCCCCCOc1ccc(NC(=O)[C@@H](N)CC(=O)O)cc1 | – | 57 | –
10 | – | – | 10 | 0.074 | – | – | CCCCCCCCOc1ccc(NC(=O)[C@@](C)(N)/C=C/C(=O)O)cc1 | – | 25 | –
11 | 0.135 | > 3 | > 10 | 0.095 | > 22 | – | CCCCCCCCOc1ccc(NC(=O)[C@@](C)(N)CC(=O)O)cc1C(F)(F)F | – | 24 | –
